The data set can be described thus: Time to dissolve in 0.5 M aqueous sodium hydroxide solution at 20° C. The format is physicochemical. Here is the method:
The novel acetoacetarylamides dissolve in a 0.5 N sodium hydroxide solution at 20° C. in from approximately half to one third of the time required by a dried acetoacetarylide prepared according to the prior art.
Water was introduced into a 1.5 l bench stirrer and adjusted to a temperature of 20° C. The stirrer was then rendered inert using nitrogen. Using two pumps, 133 g of aniline and 124 g of diketene were metered in over the course of 10 minutes. The addition of aniline was delayed by about 30 sec. At the end of the metered addition, the reaction temperature increased to 65° to 70° C. The mixture was then allowed to react for a further 30 minutes, and the reaction temperature dropped to 60° C. Vacuum cooling (450 to 120 mbar) was used to cool the mixture to 40° C., and the liquid acetoacetanilide began to crystallize, as a result of which the temperature immediately rose to about 58° C. The mixture was then cooled to 15° C. At 15° C., the solid product was centrifuged off, washed with 50 ml of water and dried at 50° C. under reduced pressure for 12 h. This method gave acetoacetanilide having a content of >99.5 percent (with a residual moisture content of <0.1 percent). The yield in terms of aniline was 97.1 percent, and in terms of diketene was 92.0 percent. A crystalline product having an average particle size of 450 to 500 μm was obtained. 50 g of the resulting acetoacetanilide (dry, 99.5 percent, water content <0.1 percent) dissolved completely at 20° C. in 500 ml of a 0.5 M aqueous sodium hydroxide solution in 25 minutes.
This gave white flakes having an average thickness of 0.08 mm and an average diameter of from 0.5 mm to […]. 55.6 g of the resulting acetoacetanilide (moist, content of acetoacetanilide 89.5 percent, water content 10 percent) dissolved completely at 20° C. in 500 ml of a 0.5 M aqueous sodium hydroxide solution in about 15 minutes.

Setting [1] is: 55.6 g (moist, content 89.5 percent, water content 10 percent) in 500 ml of 0.5 M aqueous sodium hydroxide solution.
[2] abbreviates: 60 g moist pastilles in 500 ml of 0.5 M aqueous sodium hydroxide solution.
The mark [3] stands for this setting: 60 g moist pastilles in 700 ml of 0.5 M aqueous sodium hydroxide solution.

For `CC(=O)CC(=O)Nc1ccccc1` [Example 1, Acetoacetanilide, reference compound], under “50 g (dry, 99.5 percent, water content <0.1 percent) in 500 ml of 0.5 M aqueous sodium hydroxide solution”, the “time to dissolve completely” value amounted to 25 min.
Take `CC(=O)CC(=O)Nc1ccccc1` [Example 4, Acetoacetanilide]: the “time to dissolve completely” value under setting [1] is recorded as “about 15 minutes”.
The same measure, in the same setting: for `CC(=O)CC(=O)Nc1ccccc1` [Example 5, Acetoacetanilide] the value was “about 17 minutes”; for `CC(=O)CC(=O)Nc1ccccc1` [Example 6, Acetoacetanilide], “about 17 minutes”.
As to `COc1ccccc1NC(=O)CC(C)=O` [Example 7, o-acetoacetanisidide], the time to dissolve entry under setting [2] is “about 20 minutes”.
Consider `CC(=O)CC(=O)Nc1ccccc1C` [Example 8, o-acetoacetotoluidide], for which the time to dissolve entry under setting [3] is “about 19 minutes”.
On to `CC(=O)CC(=O)Nc1ccc(C)cc1C` [Example 9, m-acetoacetoxylidide], for which the time to dissolve entry under setting [3] is reported as “about 18 minutes”.
In the case of `CC(=O)CC(=O)Nc1ccccc1Cl` [Example 10, o-Acetoacetochloroanilide], under setting [2], the time to dissolve entry is reported as “about 18 minutes”.
